64 compounds from the Kinase Knowledgebase extract (Sharma et al. 2016) can be followed below.

For this test, the target named is ROCK2 (human) (UniProt O75116). Description: Inhibition of ROCK2 Kinase Activity.

Where only a bound is given, the exact number is not on record here.

ROCK2 (human), sequence (O75116 whole entry, looked up): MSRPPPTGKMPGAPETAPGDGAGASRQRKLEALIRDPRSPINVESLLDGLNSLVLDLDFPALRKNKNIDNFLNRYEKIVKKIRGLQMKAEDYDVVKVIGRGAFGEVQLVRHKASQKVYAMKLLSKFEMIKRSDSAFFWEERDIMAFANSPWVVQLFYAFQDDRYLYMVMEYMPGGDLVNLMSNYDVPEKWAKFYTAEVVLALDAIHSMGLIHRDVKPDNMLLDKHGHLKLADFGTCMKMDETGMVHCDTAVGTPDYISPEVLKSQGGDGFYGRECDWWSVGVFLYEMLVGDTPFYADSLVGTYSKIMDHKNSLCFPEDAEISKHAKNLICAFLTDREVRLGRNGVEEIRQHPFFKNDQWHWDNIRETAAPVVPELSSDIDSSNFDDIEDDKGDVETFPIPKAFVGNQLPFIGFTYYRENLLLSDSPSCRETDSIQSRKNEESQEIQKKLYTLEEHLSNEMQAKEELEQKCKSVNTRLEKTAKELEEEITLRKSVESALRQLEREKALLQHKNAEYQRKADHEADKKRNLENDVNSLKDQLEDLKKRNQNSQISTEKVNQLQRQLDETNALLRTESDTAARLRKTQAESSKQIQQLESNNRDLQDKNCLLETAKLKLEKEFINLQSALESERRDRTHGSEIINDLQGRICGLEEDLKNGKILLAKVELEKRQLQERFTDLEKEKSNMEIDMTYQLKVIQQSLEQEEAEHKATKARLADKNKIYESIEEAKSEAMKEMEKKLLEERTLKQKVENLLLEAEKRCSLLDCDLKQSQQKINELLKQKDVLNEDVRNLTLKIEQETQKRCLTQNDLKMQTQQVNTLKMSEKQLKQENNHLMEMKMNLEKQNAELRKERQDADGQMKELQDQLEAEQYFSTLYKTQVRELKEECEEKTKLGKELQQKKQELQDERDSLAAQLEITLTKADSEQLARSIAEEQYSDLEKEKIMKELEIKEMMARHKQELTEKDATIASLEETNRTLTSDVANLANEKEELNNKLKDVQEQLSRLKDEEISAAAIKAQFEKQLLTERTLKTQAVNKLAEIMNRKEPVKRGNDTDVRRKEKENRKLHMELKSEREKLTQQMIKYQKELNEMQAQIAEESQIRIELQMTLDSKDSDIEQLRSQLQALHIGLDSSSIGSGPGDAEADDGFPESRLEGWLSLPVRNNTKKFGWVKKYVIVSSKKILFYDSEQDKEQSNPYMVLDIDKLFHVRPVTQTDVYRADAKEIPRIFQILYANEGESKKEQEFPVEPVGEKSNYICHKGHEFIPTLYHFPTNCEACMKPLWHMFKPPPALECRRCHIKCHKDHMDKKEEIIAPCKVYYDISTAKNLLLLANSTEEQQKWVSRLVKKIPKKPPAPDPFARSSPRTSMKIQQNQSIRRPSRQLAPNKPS

`NC(C(=O)N1CCN(Cc2ccc(F)cc2)CC1)c1ccc(C(=O)Nc2ccncc2)cc1` (centres undefined) displayed a half-maximal inhibitory concentration (IC50) of 0.5 to 5 µM. To `NC(CC(=O)N1CCSC1)c1ccc(C(=O)Nc2ccncc2)cc1` (centres undefined) belongs under 0.5 µM. Consider `NC(CC(=O)N1CCc2c([nH]c3ccccc23)C1c1cccc(Cl)c1)c1ccc(C(=O)Nc2ccncc2)cc1` (centres undefined), for which the IC50 is 0.5 to 5 µM. For `NC(CC(=O)N1Cc2ccccc2C1)c1ccc(C(=O)Nc2ccncc2)cc1` (centres undefined) the value was under 0.5 µM; for `NC(C(=O)N1CCN(c2ccccc2)CC1)c1ccc(C(=O)Nc2ccncc2)cc1` (centres undefined), 0.5 to 5 µM; for `NC(CC(=O)N1CCN(C(=O)c2ccco2)CC1)c1ccc(C(=O)Nc2ccncc2)cc1` (centres undefined), under 0.5 µM.

As for `NC(CC(=O)N1CCc2ccccc2C1)c1ccc(C(=O)Nc2ccncc2)cc1` (centres undefined), the IC50 was under 0.5 µM. To `COc1ccc(CN2CCN(C(=O)CC(N)c3ccc(C(=O)Nc4ccncc4)cc3)CC2)cc1` (centres undefined) belongs 0.5 to 5 µM; to `CN(CCO)C(=O)C(N)c1ccc(C(=O)Nc2ccncc2)cc1` (centres undefined), 0.5 to 5 µM. In turn, `COCCNC(=O)C(N)c1ccc(C(=O)Nc2ccncc2)cc1` (centres undefined) returned an IC50 of 0.5 to 5 µM. To `NC(C(=O)NCC1CC1)c1ccc(C(=O)Nc2ccncc2)cc1` (centres undefined) belongs 0.5 to 5 µM; to `N[C@@H](CC(=O)N1CCC[C@@H]1c1cccc(F)c1)c1ccc(C(=O)Nc2ccncc2)cc1`, under 0.5 µM.

As to `NC(C(=O)NC1Cc2ccccc2C1)c1ccc(C(=O)Nc2ccncc2)cc1` (centres undefined), the IC50 is under 0.5 µM. For `CC1CC(C)CN(C(=O)CC(N)c2ccc(C(=O)Nc3ccncc3)cc2)C1` (centres undefined) the value was under 0.5 µM; for `CCCS(=O)(=O)NCC(N)c1ccc(C(=O)Nc2ccncc2)cc1` (centres undefined), under 0.5 µM; for `N[C@H](CC(=O)N1CCC[C@H]1c1cccc(F)c1)c1ccc(C(=O)Nc2ccncc2)cc1`, under 0.5 µM. To `NC(C(=O)N1CCN(Cc2ccccc2F)CC1)c1ccc(C(=O)Nc2ccncc2)cc1` (centres undefined) belongs 0.5 to 5 µM; to `COc1ccc(C2c3[nH]c4ccccc4c3CCN2C(=O)CC(N)c2ccc(C(=O)Nc3ccncc3)cc2)cc1Br` (centres undefined), 0.5 to 5 µM; to `Cc1ccc(CN2CCC(NC(=O)C(N)c3ccc(C(=O)Nc4ccncc4)cc3)CC2)s1` (centres undefined), 0.5 to 5 µM.

In turn, `NC(c1ccc(C(=O)Nc2ccncc2)cc1)C1CCCN1S(=O)(=O)c1cccc(F)c1` (centres undefined) displayed a half-inhibitory concentration (IC50) of 0.5 to 5 µM.

In the case of `COc1ccccc1CNC(=O)C(N)c1ccc(C(=O)Nc2ccncc2)cc1` (centres undefined), the IC50 was under 0.5 µM. For `NC(c1ccc(C(=O)Nc2ccncc2)cc1)C1CCCN1S(=O)(=O)c1ccccc1F` (centres undefined) the value was 0.5 to 5 µM; for `CN(CC(N)c1ccc(C(=O)Nc2ccncc2)cc1)S(=O)(=O)c1ccc(F)cc1` (centres undefined), 0.5 to 5 µM. Take `CCCCCCCCS(=O)(=O)NCC(N)c1ccc(C(=O)Nc2ccncc2)cc1` (centres undefined): the IC50 was in the range of 0.5 to 5 µM.

Turning to `COC(=O)c1ccc(C2CCCCN2C(=O)CC(N)c2ccc(C(=O)Nc3ccncc3)cc2)cc1` (centres undefined), the concentration for half-maximal inhibition (IC50) is under 0.5 µM. To `NC(CC(=O)N1CCc2ccc(Cl)cc2C1)c1ccc(C(=O)Nc2ccncc2)cc1` (centres undefined) belongs under 0.5 µM.

Turning to `N[C@@H](CC(=O)N1CCC[C@H]1c1cccc(F)c1)c1ccc(C(=O)Nc2ccncc2)cc1`, the IC50 was under 0.5 µM. In the case of `NC(CNS(=O)(=O)c1cccc(-c2ccccc2)c1)c1ccc(C(=O)Nc2ccncc2)cc1` (centres undefined), the half-inhibitory concentration (IC50) was 0.5 to 5 µM. For `CC1CC(C)CN(C(=O)C(N)c2ccc(C(=O)Nc3ccncc3)cc2)C1` (centres undefined) the value was under 0.5 µM; for `Cc1cccc(S(=O)(=O)NCC(N)c2ccc(C(=O)Nc3ccncc3)cc2)c1` (centres undefined), under 0.5 µM; for `NC(CC(=O)N1CCCCC1c1ccc(F)cc1)c1ccc(C(=O)Nc2ccncc2)cc1` (centres undefined), under 0.5 µM. As for `NC(CNS(=O)(=O)c1cccc(Cl)c1)c1ccc(C(=O)Nc2ccncc2)cc1` (centres undefined), the IC50 is under 0.5 µM. Take `NC(c1ccc(C(=O)Nc2ccncc2)cc1)C1CCCN1S(=O)(=O)c1ccc(F)cc1` (centres undefined): the IC50 lay in the range of 0.5 to 5 µM.

Regarding `NC(CNS(=O)(=O)c1ccccc1)c1ccc(C(=O)Nc2ccncc2)cc1` (centres undefined), the IC50 is under 0.5 µM. Take `NC(C(=O)NC1CCN(Cc2ccccc2)CC1)c1ccc(C(=O)Nc2ccncc2)cc1` (centres undefined): the concentration for half-maximal inhibition (IC50) was in the range of 0.5 to 5 µM.

For the compound `NC(C(=O)NCc1ccncc1)c1ccc(C(=O)Nc2ccncc2)cc1` (centres undefined), the IC50 lay within 0.5 to 5 µM.

In the case of `NC(CC(=O)N1CCC(c2nc3ccccc3o2)CC1)c1ccc(C(=O)Nc2ccncc2)cc1` (centres undefined), the IC50 was under 0.5 µM.

Take `NC(CC(=O)N1CCCCC1c1ccccc1)c1ccc(C(=O)Nc2ccncc2)cc1` (centres undefined): the IC50 is under 0.5 µM. For `NC(CNS(=O)(=O)c1ccccc1F)c1ccc(C(=O)Nc2ccncc2)cc1` (centres undefined) the value was under 0.5 µM; for `NC(CNS(=O)(=O)c1ccc(-c2ccccc2)cc1)c1ccc(C(=O)Nc2ccncc2)cc1` (centres undefined), 0.5 to 5 µM; for `NC(C(=O)N1CCOCC1)c1ccc(C(=O)Nc2ccncc2)cc1` (centres undefined), under 0.5 µM.

The compound `NC(C(=O)NCCc1ccccc1)c1ccc(C(=O)Nc2ccncc2)cc1` (centres undefined) returned an IC50 of under 0.5 µM. For `NC(CC(=O)N1CCCC1c1ccccc1)c1ccc(C(=O)Nc2ccncc2)cc1` (centres undefined) the value was under 0.5 µM. The compound `NC(C(=O)NCC1CCCO1)c1ccc(C(=O)Nc2ccncc2)cc1` (centres undefined) yielded an IC50 of 0.5 to 5 µM. For `NC(C(=O)NCCn1cccn1)c1ccc(C(=O)Nc2ccncc2)cc1` (centres undefined) the value was 0.5 to 5 µM; for `NC(CC(=O)N1CCCCC1c1cc(Cl)ccc1Cl)c1ccc(C(=O)Nc2ccncc2)cc1` (centres undefined), under 0.5 µM; for `CCC(NC(=O)C(N)c1ccc(C(=O)Nc2ccncc2)cc1)c1ccccc1` (centres undefined), under 0.5 µM.

`COc1ccc(CNC(=O)C(N)c2ccc(C(=O)Nc3ccncc3)cc2)cc1` (centres undefined): the IC50 is under 0.5 µM. For `NC(CC(=O)N1CCOCC1c1ccc(F)cc1)c1ccc(C(=O)Nc2ccncc2)cc1` (centres undefined) the value was under 0.5 µM; for `CS(=O)(=O)NCC(N)c1ccc(C(=O)Nc2ccncc2)cc1` (centres undefined), under 0.5 µM; for `CN(Cc1ccccc1)C(=O)C(N)c1ccc(C(=O)Nc2ccncc2)cc1` (centres undefined), under 0.5 µM. For `NC(CNS(=O)(=O)c1cccc2ccccc12)c1ccc(C(=O)Nc2ccncc2)cc1` (centres undefined) the value was under 0.5 µM; for `NC(CC(=O)N1CCCCC1c1ccc(Cl)cc1)c1ccc(C(=O)Nc2ccncc2)cc1` (centres undefined), under 0.5 µM. For `COc1cccc(C2CCCCN2C(=O)CC(N)c2ccc(C(=O)Nc3ccncc3)cc2)c1` (centres undefined) the value was under 0.5 µM. In the case of `COc1ccc(S(=O)(=O)N(C)C[C@@H](N)c2ccc(C(=O)Nc3ccncc3)cc2)cc1`, the concentration for half-maximal inhibition (IC50) was under 0.5 µM.

On to `NC(C(=O)NCCc1cccs1)c1ccc(C(=O)Nc2ccncc2)cc1` (centres undefined), for which the IC50 was under 0.5 µM. Regarding `CN(CC(N)c1ccc(C(=O)Nc2ccncc2)cc1)S(=O)(=O)c1ccccc1F` (centres undefined), the IC50 was 0.5 to 5 µM. Consider `NC(CC(=O)N1CCCCC1)c1ccc(C(=O)Nc2ccncc2)cc1` (centres undefined), for which the IC50 is under 0.5 µM. To `CCCCS(=O)(=O)NCC(N)c1ccc(C(=O)Nc2ccncc2)cc1` (centres undefined) belongs under 0.5 µM; to `CONC(=O)C(N)c1ccc(C(=O)Nc2ccncc2)cc1` (centres undefined), 0.5 to 5 µM. To `CCCCNNC(=O)C(N)c1ccc(C(=O)Nc2ccncc2)cc1` (centres undefined) belongs under 0.5 µM. For `NC(CC(=O)N1CCCC(CO)C1)c1ccc(C(=O)Nc2ccncc2)cc1` (centres undefined) the value was under 0.5 µM; for `COc1ccc(S(=O)(=O)N(C)C[C@H](N)c2ccc(C(=O)Nc3ccncc3)cc2)cc1`, 5 to 50 µM; for `CCS(=O)(=O)NCC(N)c1ccc(C(=O)Nc2ccncc2)cc1` (centres undefined), under 0.5 µM.
